In ChEMBL document CHEMBL4411300 (Eur J Med Chem, 2019):
Calls of active or inactive are those of the source. No cut-off for these calls is given here.

Experiments:
Trypanosoma cruzi [1] = test: (§1) Antitrypanosomal activity against Trypanosoma cruzi MHOM/Pe/2011/Arequipa DTU 5 trypomastigotes infected in Balb/c mouse assessed as parasite-free adipose tissue at 20 mg/kg, po pretreated once daily for 5 consecutive days starting from day 75 post infection followed by cyclophosphamide-induced immunosuppression on day 100 post infection every 4 days for a maximum of 3 doses measured on day 127 post infection by PCR method; format: functional
[2] = (§2) Hepatotoxicity in Balb/c mouse infected with Trypanosoma cruzi MHOM/Pe/2011/Arequipa DTU 5 trypomastigotes assessed as increase in ratio of serum AST to GOT level at 20 mg/kg, po once daily for 5 consecutive days starting from day 10 post infection measured on day 16 post infection relative to control; format: toxicity, organism-based; settings: in vivo
Trypanosoma cruzi [3] = test: as §1, with “bone marrow” for “adipose tissue”; format: functional
[4] = Nephrotoxicity in Balb/c mouse infected with Trypanosoma cruzi MHOM/Pe/2011/Arequipa DTU 5 trypomastigotes assessed as decrease in serum uric acid level at 20 mg/kg, po once daily for 5 consecutive days starting from day 75 post infection measured on day 127 post infection relative to control; format: toxicity, organism-based; set-up: scale not given: the % may be the effect or the level left; settings: in vivo
[5] = as §2, with “75” for “10”, “127” for “16”; format: toxicity, organism-based; settings: in vivo
[6] = (§3) Hepatotoxicity in Balb/c mouse infected with Trypanosoma cruzi MHOM/Pe/2011/Arequipa DTU 5 trypomastigotes assessed as increase in serum ALT to GPT level at 20 mg/kg, po once daily for 5 consecutive days starting from day 10 post infection measured on day 16 post infection relative to control; format: toxicity, organism-based; settings: in vivo
[7] = as §3, with “change” for “increase”, “alkaline phosphatase” for “serum ALT to GPT”, “127” for “16”, “by biochemical analysis (reference value: 161 U/L)” for “relative to control”; format: toxicity, organism-based; settings: in vivo
[8] = Hepatotoxicity in Balb/c mouse infected with Trypanosoma cruzi MHOM/Pe/2011/Arequipa DTU 5 trypomastigotes assessed as change in ratio of serum ALT to GPT level at 20 mg/kg, po once daily for 5 consecutive days starting from day 10 post infection measured on day 127 post infection by biochemical analysis (reference value: 49 U/L); format: toxicity, organism-based; settings: in vivo
[9] = (§4) Hepatotoxicity in Balb/c mouse infected with Trypanosoma cruzi MHOM/Pe/2011/Arequipa DTU 5 trypomastigotes assessed as increase in alkaline phosphatase level at 20 mg/kg, po once daily for 5 consecutive days starting from day 75 post infection measured on day 81 post infection relative to control; format: toxicity, organism-based; settings: in vivo
[10] = Hepatotoxicity in Balb/c mouse infected with Trypanosoma cruzi MHOM/Pe/2011/Arequipa DTU 5 trypomastigotes assessed as increase in total bilirubin level at 20 mg/kg, po once daily for 5 consecutive days starting from day 75 post infection measured on day 81 post infection relative to control; format: toxicity, organism-based; settings: in vivo
Trypanosoma cruzi [11] = test: Antitrypanosomal activity against Trypanosoma cruzi MHOM/Pe/2011/Arequipa DTU 5 trypomastigotes infected in Balb/c mouse assessed as reduction in Ig-G level in serum at 20 mg/kg, po once daily for 5 consecutive days starting from day 10 post infection measured on day 16 post infection by ELISA; format: functional, organism-based
[12] = Selectivity index, ratio of IC50 for African green monkey Vero cells to IC50 for Trypanosoma cruzi IRHOD/CO/2008/SN3 DTU 1 trypomastigotes derived from infected Balb/c albino mouse; format: toxicity; settings: read-out: Ratio IC50
Trypanosoma cruzi [13] = test: Trypanocidal activity against Trypanosoma cruzi MHOM/Pe/2011/Arequipa DTU 5 amastigotes infected in African green monkey Vero cells assessed as reduction in number of amastigotes per infected cells at log -0.41 to 1.7 after 72 hrs by Giemsa-staining based assay; format: functional, organism-based
Trypanosoma cruzi [14] = test: Trypanocidal activity against Trypanosoma cruzi TINF/CH/1956/Tulahuen DTU 6 trypomastigotes derived from infected Balb/c albino mouse after 24 hrs by resazurin dye based assay; format: functional, organism-based; settings: TINF/CH/1956/Tulahuen DTU 6, 24 h
[15] = as §4, with “change” for “increase”, “127” for “81”, “(reference value: 149 U/L)” for “relative to control”; format: toxicity, organism-based; settings: in vivo
[16] = Selectivity index, ratio of IC50 for African green monkey Vero cells to IC50 for Trypanosoma cruzi TINF/CH/1956/Tulahuen DTU 6 trypomastigotes derived from infected Balb/c albino mouse; format: toxicity; settings: read-out: Ratio IC50
[17] = Toxicity in Balb/c mouse assessed as death at 20 mg/kg, po once daily for 5 consecutive days starting from day 75 post infection; format: organism-based; settings: in vivo
[18] = Selectivity index, ratio of IC50 for African green monkey Vero cells to IC50 for Trypanosoma cruzi MHOM/Pe/2011/Arequipa DTU 5 amastigotes infected in African green monkey Vero cells; format: toxicity; settings: read-out: Ratio IC50
Trypanosoma cruzi [19] = test: Antitrypanosomal activity against Trypanosoma cruzi MHOM/Pe/2011/Arequipa DTU 5 epimastigotes assessed as effect on parasite glycolytic pathway by measuring decrease in succinate excretion at IC25 after 72 hrs by 1H NMR method relative to control; format: functional; set-up: scale not given: the % may be the effect or the level left
Trypanosoma cruzi [20] = test: Antitrypanosomal activity against Trypanosoma cruzi MHOM/Pe/2011/Arequipa DTU 5 epimastigotes assessed as effect on parasite glycolytic pathway by measuring decrease in D-lactate excretion at IC25 after 72 hrs by 1H NMR method; format: functional, organism-based
Trypanosoma cruzi [21] = test: Trypanocidal activity against Trypanosoma cruzi TINF/CH/1956/Tulahuen DTU 6 epimastigotes after 48 to 72 hrs by resazurin dye based assay; format: functional, organism-based
Trypanosoma cruzi [22] = test: Trypanocidal activity against Trypanosoma cruzi MHOM/Pe/2011/Arequipa DTU 5 amastigotes infected in African green monkey Vero cells after 72 hrs by Giemsa-staining based microscopic assay; format: functional, organism-based; settings: MHOM/Pe/2011/Arequipa DTU 5, Vero
[23] = Selectivity index, ratio of IC50 for African green monkey Vero cells to IC50 for Trypanosoma cruzi TINF/CH/1956/Tulahuen DTU 6 epimastigotes; format: toxicity; settings: read-out: Ratio IC50
Vero = test: Cytotoxicity against African green monkey Vero cells assessed as reduction in cell viability after 48 to 72 hrs by resazurin dye based assay; settings: Chlorocebus sabaeus
Trypanosoma cruzi [24] = test: Antitrypanosomal activity against Trypanosoma cruzi MHOM/Pe/2011/Arequipa DTU 5 epimastigotes assessed as effect on parasite glycolytic pathway by measuring decrease in pyruvate excretion at IC25 after 72 hrs by 1H NMR method; format: functional, organism-based
[25] = Toxicity in Balb/c mouse assessed as reduction in body mass at 20 mg/kg, po once daily for 5 consecutive days starting from day 10 post infection relative to control; format: organism-based; set-up: scale not given: the % may be the effect or the level left; settings: in vivo
Trypanosoma cruzi [26] = test: Trypanocidal activity against Trypanosoma cruzi MHOM/Pe/2011/Arequipa DTU 5 amastigotes infected in African green monkey Vero cells assessed as reduction in infected cells after 72 hrs by Giemsa-staining based assay; format: functional, organism-based; settings: MHOM/Pe/2011/Arequipa DTU 5, Vero
[27] = as §2, with “decrease” for “increase”, “75” for “10”, “81” for “16”; format: toxicity, organism-based; set-up: scale not given: the % may be the effect or the level left; settings: in vivo
Trypanosoma cruzi [28] = test: as §1, with “reduction in Ig-G level in serum” for “parasite-free adipose tissue”, “10” for “75”, “ELISA” for “PCR method”; format: functional, organism-based
Trypanosoma cruzi [29] = test: Antitrypanosomal activity against Trypanosoma cruzi MHOM/Pe/2011/Arequipa DTU 5 trypomastigotes infected in Balb/c mouse assessed as reduction in Ig-G level in serum at 20 mg/kg, po once daily for 5 consecutive days starting from day 10 post infection measured on day 100 post infection by ELISA; format: functional, organism-based

SMILES | Activity (Trypanosoma cruzi [1]) [%] | Activity [2] [%] | Activity (Trypanosoma cruzi [3]) [%] | Activity [4] | Activity [5] | Activity [6] [%] | Activity [7] [U/L] | Activity [8] [U/L] | Activity [9] | Activity [10] | Activity (Trypanosoma cruzi [11]) | selectivity ratio [12] | Activity (Trypanosoma cruzi [13]) | IC50 (Trypanosoma cruzi [14]) [µM] | Activity [15] [U/L] | selectivity ratio [16] | Activity [17] | selectivity ratio [18] | Activity (Trypanosoma cruzi [19]) [%] | Activity (Trypanosoma cruzi [20]) | other results
O=C(Cn1ccnc1[N+](=O)[O-])NCc1ccccc1 [BENZNIDAZOLE] | 51.2 | > 40 | 75 | <= 10% | <= 10% | > 40 | 161 | 49 | > 40% | <= 30% | – | – | – | – | – | – | – | – | – | – | –
Cl.Cl.Cl.Cl.Cl.Cl.c1ccc2nc(CNCCN(CCNCc3ccc4ccccc4n3)CCNCc3ccc4ccccc4n3)ccc2c1 | – | – | – | – | <= 10% | > 40 | 161 | – | <= 20% | <= 30% | inactive | 1560 | Active | 1.9 | 149 | 890 | Non-Toxic | 692 | 49 | Active | IC50 (Trypanosoma cruzi [21]): 19.5 µM; IC50 (Trypanosoma cruzi [22]): 2.4 µM; selectivity ratio [23]: 84.8; IC50 (Vero): 1560 µM; Activity (Trypanosoma cruzi [24]): Active; Activity [25]: < 10%; IC50 (Trypanosoma cruzi [26]): 3.6 µM; Activity [27]: <= 10%; Activity (Trypanosoma cruzi [28]): inactive; Activity (Trypanosoma cruzi [29]): inactive
Cl.Cl.Cl.NCCN(CCN)CCNCc1ccc2c(c1)Cc1ccccc1-2 | 16.3 | > 40 | 5.9 | <= 10% | – | – | – | 49 | – | – | Active | 142 | Active | 17.6 | 149 | 100 | Non-Toxic | 365 | 34 | Active | IC50 (Trypanosoma cruzi [21]): 30.7 µM; IC50 (Trypanosoma cruzi [22]): 4.8 µM; selectivity ratio [23]: 57.5; IC50 (Vero): 1770 µM; Activity (Trypanosoma cruzi [24]): Active; Activity [25]: < 10%; IC50 (Trypanosoma cruzi [26]): 8 µM; Activity [27]: <= 10%; Activity (Trypanosoma cruzi [28]): Active; Activity (Trypanosoma cruzi [29]): Active
